Article PMC12736255, “Reinvestigating Pyrrol-2-One-Based Compounds: From Antimicrobial Agents to Promising Antitumor Candidates” (Pharmaceuticals, 2025)

Legend:
Assay in all cases: NCI-60 single-dose screen
[1] = system: EKVX; assay type: cell-based, human; details: Homo sapiens, 10^–5 M, read-out: GI (%)
Excerpt: (§1) In the next step, all synthesized compounds were electronically submitted and accepted for testing to the National Cancer Institute (NCI) platform, for the single dose (10^−5 M) screening against a panel of 60 human tumor cell lines, representing leukemia, melanoma, and cancers of the lung, colon, central nervous system, ovary, kidney, prostate, and breast. The results are summarized in Table 2, with the best values highlighted in red (Figures S1–S14).

[2] = system: NCI-H226; assay type: cell-based, human; details: Homo sapiens; NCI-H226, 10^–5 M; read-out: GI (%)
Excerpt: as §1

[3] = system: 786-0; assay type: cell-based; details: Homo sapiens; 786-0, 10^–5 M; read-out: GI (%)
Excerpt: as §1

[4] = system: A498; assay type: cell-based; details: Homo sapiens; A498, 10^–5 M; read-out: GI (%)
Excerpt: as §1

[5] = system: A549/ATCC; assay type: cell-based; details: Homo sapiens, 10^–5 M, read-out: GI (%)
Excerpt: as §1

[6] = system: CAKI-1; assay type: cell-based; details: Homo sapiens; CAKI-1, 10^–5 M; read-out: GI (%)
Excerpt: as §1

[7] = system: CCRF-CEM; assay type: cell-based; details: Homo sapiens, 10^–5 M, read-out: GI (%)
Excerpt: as §1

[8] = system: DU-145; assay type: cell-based; details: Homo sapiens; DU-145, 10^–5 M; read-out: GI (%)
Excerpt: as §1

[9] = system: HCC-2998; assay type: cell-based; details: Homo sapiens; HCC-2998, 10^–5 M; read-out: GI (%)
Excerpt: as §1

[10] = system: HCT-116; assay type: cell-based; details: Homo sapiens; HCT-116, 10^–5 M; read-out: GI (%)
Excerpt: as §1

[11] = system: HCT-15; assay type: cell-based; details: Homo sapiens; HCT-15, 10^–5 M; read-out: GI (%)
Excerpt: as §1

[12] = system: HL-60(TB); assay type: cell-based; details: Homo sapiens, 10^–5 M, read-out: GI (%)
Excerpt: as §1

[13] = system: HS 578T; assay type: cell-based; details: Homo sapiens, 10^–5 M, read-out: GI (%)
Excerpt: as §1

[14] = system: IGROV1; assay type: cell-based; details: Homo sapiens, IGROV-1; IGROV1, 10^–5 M; read-out: GI (%)
Excerpt: as §1

[15] = system: K-562; assay type: cell-based; details: Homo sapiens, K562; K-562, 10^–5 M; read-out: GI (%)
Excerpt: as §1

[16] = system: LOX IMVI; assay type: cell-based; details: Homo sapiens, 10^–5 M, read-out: GI (%)
Excerpt: as §1

[17] = system: M14; assay type: cell-based; details: Homo sapiens; M14, 10^–5 M; read-out: GI (%)
Excerpt: as §1

[18] = system: MCF7; assay type: cell-based; details: Homo sapiens; MCF7, 10^–5 M; read-out: GI (%)
Excerpt: as §1

[19] = system: MDA-MB-231/ATCC; assay type: cell-based; details: Homo sapiens, 10^–5 M, read-out: GI (%)
Excerpt: as §1

[20] = system: MDA-MB-435; assay type: cell-based; details: Homo sapiens; MDA-MB-435, 10^–5 M; read-out: GI (%)
Excerpt: as §1

[21] = system: MOLT-4; assay type: cell-based; details: Homo sapiens; MOLT-4, 10^–5 M; read-out: GI (%)
Excerpt: as §1

[22] = system: NCI-H23; assay type: cell-based; details: Homo sapiens; NCI-H23, 10^–5 M; read-out: GI (%)
Excerpt: as §1

[23] = system: NCI-H322M; assay type: cell-based; details: Homo sapiens, 10^–5 M, read-out: GI (%)
Excerpt: as §1

[24] = system: NCI-H522; assay type: cell-based; details: Homo sapiens; NCI-H522, 10^–5 M; read-out: GI (%)
Excerpt: as §1

[25] = system: OVCAR-4; assay type: cell-based; details: Homo sapiens; OVCAR-4, 10^–5 M; read-out: GI (%)
Excerpt: as §1

[26] = system: OVCAR-5; assay type: cell-based; details: Homo sapiens; OVCAR-5, 10^–5 M; read-out: GI (%)
Excerpt: as §1

[27] = system: RPMI-8226; assay type: cell-based; details: Homo sapiens; RPMI-8226, 10^–5 M; read-out: GI (%)
Excerpt: as §1

[28] = system: SF-539; assay type: cell-based; details: Homo sapiens; SF-539, 10^–5 M; read-out: GI (%)
Excerpt: as §1

[29] = system: SK-MEL-28; assay type: cell-based; details: Homo sapiens; SK-MEL-28, 10^–5 M; read-out: GI (%)
Excerpt: as §1

[30] = system: SK-MEL-2; assay type: cell-based; details: Homo sapiens; SK-MEL-2, 10^–5 M; read-out: GI (%)
Excerpt: as §1

[31] = system: SK-OV-3; assay type: cell-based; details: Homo sapiens; SK-OV-3, 10^–5 M; read-out: GI (%)
Excerpt: as §1

[32] = system: SN12C; assay type: cell-based; details: Homo sapiens, 10^–5 M, read-out: GI (%)
Excerpt: as §1

[33] = system: SNB-19; assay type: cell-based; details: Homo sapiens; SNB-19, 10^–5 M; read-out: GI (%)
Excerpt: as §1

[34] = system: SNB-75; assay type: cell-based; details: Homo sapiens; SNB-75, 10^–5 M; read-out: GI (%)
Excerpt: as §1

[35] = system: SW-620; assay type: cell-based; details: Homo sapiens; SW-620, 10^–5 M; read-out: GI (%)
Excerpt: as §1

[36] = system: T-47D; assay type: cell-based; details: Homo sapiens, T47D, 10^–5 M, read-out: GI (%)
Excerpt: as §1

[37] = system: UACC-257; assay type: cell-based; details: Homo sapiens; UACC-257, 10^–5 M; read-out: GI (%)
Excerpt: as §1

[38] = system: UACC-62; assay type: cell-based; details: Homo sapiens; UACC-62, 10^–5 M; read-out: GI (%)
Excerpt: as §1

Row | SMILES | inhibition at 10 µM [1] [%] | inhibition at 10 µM [2] [%] | inhibition at 10 µM [3] [%] | inhibition at 10 µM [4] [%] | inhibition at 10 µM [5] [%] | inhibition at 10 µM [6] [%] | inhibition at 10 µM [7] [%] | inhibition at 10 µM [8] [%] | inhibition at 10 µM [9] [%] | inhibition at 10 µM [10] [%] | inhibition at 10 µM [11] [%] | inhibition at 10 µM [12] [%] | inhibition at 10 µM [13] [%] | inhibition at 10 µM [14] [%] | inhibition at 10 µM [15] [%] | inhibition at 10 µM [16] [%] | inhibition at 10 µM [17] [%] | inhibition at 10 µM [18] [%] | inhibition at 10 µM [19] [%] | inhibition at 10 µM [20] [%] | also measured
1 | COc1cc(OC)c(C2C=C(Nc3ccc(I)cc3)C(=O)N2c2ccc(I)cc2)cc1OC (stereo not drawn) [3k] | 0 | 0 | 3 | 0 | 3 | 15 | 0 | 0 | 5 | 4 | 0 | 2 | 0 | 2 | 0 | 5 | 0 | 23 | 0 | 0 | inhibition at 10 µM [21]: 0%; inhibition at 10 µM [22]: 0%; inhibition at 10 µM [23]: 4%; inhibition at 10 µM [24]: 2%; inhibition at 10 µM [25]: 3%; inhibition at 10 µM [26]: 0%; inhibition at 10 µM [27]: 14%; inhibition at 10 µM [28]: 18%; inhibition at 10 µM [29]: 0%; inhibition at 10 µM [30]: 0%; inhibition at 10 µM [31]: 0%; inhibition at 10 µM [32]: 2%; inhibition at 10 µM [33]: 0%; inhibition at 10 µM [34]: 0%; inhibition at 10 µM [35]: 0%; inhibition at 10 µM [36]: 8%; inhibition at 10 µM [37]: 0%; inhibition at 10 µM [38]: 0%
2 | O=C1C(Nc2ccc(I)cc2)=CC(c2ccc3c(c2)OCO3)N1c1ccc(I)cc1 (stereo not drawn) [3n] | 12 | 3 | 9 | 16 | 15 | 16 | 3 | 0 | 6 | 9 | 9 | 16 | 25 | 5 | 6 | 10 | 5 | 30 | 0 | 0 | inhibition at 10 µM [21]: 20%; inhibition at 10 µM [22]: 18%; inhibition at 10 µM [23]: 3%; inhibition at 10 µM [24]: 26%; inhibition at 10 µM [25]: 14%; inhibition at 10 µM [26]: 0%; inhibition at 10 µM [27]: 20%; inhibition at 10 µM [28]: 87%; inhibition at 10 µM [29]: 3%; inhibition at 10 µM [30]: 56%; inhibition at 10 µM [31]: 13%; inhibition at 10 µM [32]: 16%; inhibition at 10 µM [33]: 5%; inhibition at 10 µM [34]: 20%; inhibition at 10 µM [35]: 9%; inhibition at 10 µM [36]: 22%; inhibition at 10 µM [37]: 0%; inhibition at 10 µM [38]: 0%
3 | O=C1C(Nc2ccc(I)cc2)=CC(c2ccco2)N1c1ccc(I)cc1 (stereo not drawn) [3m] | 39 | 22 | 36 | 12 | 16 | 53 | 59 | 0 | 10 | 20 | 16 | 30 | 39 | 8 | 14 | 63 | 4 | 93 | 11 | 84 | inhibition at 10 µM [21]: 70%; inhibition at 10 µM [22]: 19%; inhibition at 10 µM [23]: 19%; inhibition at 10 µM [24]: 31%; inhibition at 10 µM [25]: 0%; inhibition at 10 µM [26]: 0%; inhibition at 10 µM [27]: 93%; inhibition at 10 µM [28]: 63%; inhibition at 10 µM [29]: 20%; inhibition at 10 µM [30]: 100%; inhibition at 10 µM [31]: 67%; inhibition at 10 µM [32]: 27%; inhibition at 10 µM [33]: 8%; inhibition at 10 µM [34]: 9%; inhibition at 10 µM [35]: 16%; inhibition at 10 µM [36]: 49%; inhibition at 10 µM [37]: 32%; inhibition at 10 µM [38]: 61%
